Measurements reported in patent publication US20090176776A1, “SMALL MOLECULE INHIBITORS OF HIV-1 CAPSID ASSEMBLY” (UNIVERSITY OF ALABAMA AT BIRMINGHAM, priority 2005, published 2009).

Experiments:
[1] = target: T1, recombinant HIV-1 capsid protein (CA) (Human immunodeficiency virus type 1 group M subtype B, UniProt P12493); experiment: Turbidity based HIV-1 capsid assembly assay; type: biochemical; conditions: initial assembly rate by turbidity; twofold dilutions over a 128 fold range; 30 μM CA, 2.25 M NaCl
T1 construct: recombinant HIV-1 capsid protein (CA); made in house
Protocol: The kinetics can be followed by monitoring the increase of turbidity using a spectrophotometer. The IC50 of the chemical compound tested is determined by titration. As the C-domain inhibits capsid assembly by forming CA-C-domain heterodimers, the effect of added C-terminal domain on the rate of assembly was evaluated by plotting the rate of assembly versus C-terminal domain concentration.
Soluble HIV-1 capsid protein can be triggered to assemble into tubes similar in diameter and morphology to intact cores by dilution into high iconic strength buffer. The kinetics of assembly can be followed by monitoring the increase in turbidity using a spectrophotometer (Lanham et al., J. Virol., 76:6900, 2002). This assembly assay was adapted to a 96-well, microplate format to allow for medium-throughput screening of compounds by measuring turbidity in a Nepeloskan Ascent plate reader (Thermo Electron Corp., UK). A DIVERSet™ library of 10,000 low molecular weight, “drug-like” compounds was purchased from ChemBridge Corp. (San Diego, Calif.). This library was selected for its potential bioavailability and application based on a pharmacophore diversity analysis. The average molecular weight of the compounds is 347 g/mol, the range being 200-596 g/mol. The compounds came plated in 96-well plates and solubilized in DMSO at 5 mgs/mL.
Turbidity based assay. A 1.5 μL aliquot of compound was diluted 90-fold into 50 mM Na2HPO4, […] buffer, pH 8 in an optically clear 96-well plate. The plate containing compounds and salt was read to check for compound solubility and to serve as a background reading for the assay. To initiate the assembly reaction, 15 μL of […] stock (in 50 mM Na2HPO4 pH 8) of recombinant HIV-1 capsid protein (CA), purified as described (Lanman et al., J. Virol., 76:6900, 2002), was added to each well of the 96-well plate using a multi-channel pipettor. […] Furthermore, the halftime of the assembly reaction is ˜5 minutes so reading the plate in thirds prevented loss of initial rate data. Therefore, CA was added to the first 4 lanes, the reactions followed for ten minutes, reading was paused, CA was then added to the next four lanes and the process repeated. Instrument settings are as follows: PMT gain of 500 V, lamp at 10V, and integration time of 60 ms. The data were exported to a custom designed Excel spreadsheet that allowed simultaneous plotting of kinetic curves.
Recombinant CA protein was purified as previously described and stored at 300 μM at −80° C. A turbidity based assembly assay, described above, was adapted to a 96-well, microplate format to allow for medium-throughput screening of compounds in a Nepheloskan Ascent plate reader (Thermo Electron Corp., UK). A 1.5 μL aliquot of compound or DMSO was diluted 90-fold into 50 mM Na2HPO4, 2.25 M NaCl buffer, pH 8 in an optically clear 96-well plate. To initiate the assembly reaction, 15 μL of the 300 μM stock (in 50 mM Na2HPO4 pH 8) of recombinant HIV-1 capsid protein (CA), was added to each well of the 96-well plate using a multi-channel pipettor.

[2] = MTS score (Table 1; method not described); type: cell-based; conditions: for MTS AVG 4 (No Effect): average of the MTS scores at 10, 30 and 100 μM; for MTS 10 μM: score at nominal 10 μM; for MTS 10 μM / MTS 30 μM / MTS 100 μM: 4 = No Effect; for MTS 30 μM: score at nominal 30 μM; for MTS 100 μM: score at nominal 100 μM
HIV-1YU2 = experiment: Anti-HIV assay (multiple round), luciferase expression in Luc-M7 cells; type: cell-based; conditions: Luc-M7 cells infected with HIV-1YU2, 6 days, Bright-Glo
Protocol: (§1) Anti-HIV Assays (Multiple Round). The inhibitory effects of the tested compounds on HIV-1YU2 replication were determined by the level of luciferase expression after 6 days of infection using Bright-Glo assay (Promega). An amount of 1.5×10^4 Luc-M7 (a gift from Ned Landau) cells per ml were infected with HIV-1YU2 at a multiplicity of infection (MOI) of 3. The HIV-1 infected ([…] compound) or mock-infected (0-300 μM compound) Luc-M7 cells were placed in 96-well culture plates (100 μl/well) with 100 μl of various concentrations of the compounds with 20 μg/ml DEAE Dextran in triplicate and incubated at 37° C. under 5% CO2 at 100% humidity. After 6 days, cell viability was quantified by Cell-Titer Glo assay (Promega). […] On day 5 cell viability was determined in the mock-infected cells. FIGS. 12-18 show the anti-HIV assays for the examples of chemical compounds used according to the invention. After in-vitro assay, the chemical compounds in FIGS. 12-18 were selected for screening for cell viability and toxicity. Jurkat cells assay was used as screening assay. […] After five days, GFP expression was read. Cell viability was monitored with Alamar Blue assay. Luc M7 assay was designed to measure inhibitory activity of the chemical compounds to viral replication. After infection of cells with YU2 virus, plate cells in 96-well plate in the presence of six concentration of compounds in DMSO. At day 6, the number of cells in wells were read with Cell Titer Glo kit or by counting the number of cells infected with Bright Glo kit. 293T cells assay was designed to determine the toxicity. 293T cells were transfected with NL43. After four hours, transfected cells were plated in 96-well plate in DMSO and 2 μM Indinavir. 72 hours later, viral supernatant was collected and plated on J[…].

Luc-M7 cells = experiment: Cell viability of Luc-M7 cells (Cell-Titer Glo); type: cell-based; set-up: unit: μM; conditions: mock-infected Luc-M7 cells, 6 days
Protocol: as §1

With `Cc1ccc(OCC(=O)NN=Cc2c(Br)cc(Br)c(O)c2Br)cc1` [Compound 3] the IC50 [1] was 7 µM, the “MTS AVG 4 (No Effect)” value [2] was 3.667 and the “MTS 10 μM” value [2] was 4. For the same compound, the “MTS 30 μM” value [2] was 3 and the “MTS 100 μM” value [2] was 4.
With `CC(=NNC(=O)C(O)c1ccccc1)c1ccc2c(c1)CCCC2` (stereo not drawn) [Compound 6] the IC50 [1] was 9 µM, the “MTS AVG 4 (No Effect)” value [2] was 3.000 and the “MTS 10 μM” value [2] was 4. For the same compound, the “MTS 30 μM” value [2] was 3, the “MTS 100 μM” value [2] was 2 and the IC50 (HIV-1YU2) was 15.4 µM. For the same compound, the TC50 (Luc-M7 cells) was 36.8.
In the case of `CCOC(=O)c1c(N2C(=O)C=CC2=O)sc2c1CCCC2` [Compound 8], the IC50 [1] is reported as 4 µM, the “MTS AVG 4 (No Effect)” value [2] is reported as 3.667 and the “MTS 10 μM” value [2] is reported as 4. The “MTS 30 μM” value [2] was 4, the “MTS 100 μM” value [2] was 3 and the IC50 (HIV-1YU2) was 13.3 µM. It also gave a TC50 (Luc-M7 cells) of 27.7.
In the case of `Oc1ccc(C=NNc2cc(N3CCOCC3)nc(N3CCOCC3)n2)c(O)c1` [Compound 9], the IC50 [1] is reported as 7 µM, the “MTS AVG 4 (No Effect)” value [2] is reported as 2.000 and the “MTS 10 μM” value [2] is reported as 4. For the same compound, the “MTS 30 μM” value [2] was 1 and the “MTS 100 μM” value [2] was 1.
For `Nc1nc(-c2ccccc2Cl)cs1` [Compound 15], the IC50 [1] was 60 µM, the “MTS AVG 4 (No Effect)” value [2] was 3.000 and the “MTS 10 μM” value [2] was 4. For the same compound, the “MTS 30 μM” value [2] was 3, the “MTS 100 μM” value [2] was 2 and the IC50 (HIV-1YU2) was 19.8 µM. For the same compound, the TC50 (Luc-M7 cells) was 58.9.
With `Cc1cc(F)ccc1NCc1ccccn1` [Compound 16] the IC50 [1] was 95 µM, the “MTS AVG 4 (No Effect)” value [2] was 3.000 and the “MTS 10 μM” value [2] was 4. For the same compound, the “MTS 30 μM” value [2] was 4, the “MTS 100 μM” value [2] was 1 and the IC50 (HIV-1YU2) was 17.8 µM. It also gave a TC50 (Luc-M7 cells) of 66.5.
For `Cc1ccc(NCC(=O)NN=Cc2c(Br)cc(Br)c(O)c2Br)cc1` [Compound 17], the IC50 [1] was 11 µM, the “MTS AVG 4 (No Effect)” value [2] was 2.333 and the “MTS 10 μM” value [2] was 4. For the same compound, the “MTS 30 μM” value [2] was 1 and the “MTS 100 μM” value [2] was 2.
In the case of `O=C(NN=Cc1c(Br)cc(Br)c(O)c1Br)c1ccccc1[N+](=O)[O-]` [Compound 23], the IC50 [1] is reported as 12 µM, the “MTS AVG 4 (No Effect)” value [2] is reported as 3.667 and the “MTS 10 μM” value [2] is reported as 4. The “MTS 30 μM” value [2] was 4 and the “MTS 100 μM” value [2] was 3.
With `O=C(NN=Cc1cc(Cl)cc([N+](=O)[O-])c1O)c1ccc2c(c1)OCO2` [Compound 37] the “MTS AVG 4 (No Effect)” value [2] was 2.000, the “MTS 10 μM” value [2] was 4 and the “MTS 30 μM” value [2] was 1. For the same compound, the “MTS 100 μM” value [2] was 1.
In the case of `CC(C)(C)c1ccc(OCC(=O)NN=Cc2ccc(O)c([N+](=O)[O-])c2)cc1` [Compound 38], the IC50 [1] is reported as 35 µM, the “MTS AVG 4 (No Effect)” value [2] is reported as 3.333 and the “MTS 10 μM” value [2] is reported as 4. For the same compound, the “MTS 30 μM” value [2] was 3 and the “MTS 100 μM” value [2] was 3.
In the case of `COc1c(O)ccc(C=NNC(=O)COc2cccc(C)c2)c1[N+](=O)[O-]` [Compound 39], the IC50 [1] is reported as 28 µM, the “MTS AVG 4 (No Effect)” value [2] is reported as 2.333 and the “MTS 10 μM” value [2] is reported as 4. For the same compound, the “MTS 30 μM” value [2] was 2 and the “MTS 100 μM” value [2] was 1.
For `O=C(O)c1ccc2c(c1)C1C=CCC1C(c1ccc([N+](=O)[O-])cc1)N2` (stereo not drawn) [Compound 41], the IC50 [1] was 18 µM, the “MTS AVG 4 (No Effect)” value [2] was 3.667 and the “MTS 10 μM” value [2] was 4. The “MTS 30 μM” value [2] was 4, the “MTS 100 μM” value [2] was 3 and the IC50 (HIV-1YU2) was 2.1 µM. It also gave a TC50 (Luc-M7 cells) of 65.8.
With `O=C1Nc2c(Br)cc(Br)cc2C1=NNC(=O)C(O)c1ccccc1` (stereo not drawn) [Compound 50] the IC50 [1] was 15 µM, the “MTS AVG 4 (No Effect)” value [2] was 2.333 and the “MTS 10 μM” value [2] was 4. For the same compound, the “MTS 30 μM” value [2] was 2 and the “MTS 100 μM” value [2] was 1.
With `O=C(COc1ccc2ccccc2c1)NN=Cc1cc(O)c(O)c(Br)c1` [Compound 53] the IC50 [1] was 33 µM, the “MTS AVG 4 (No Effect)” value [2] was 2.000 and the “MTS 10 μM” value [2] was 4. For the same compound, the “MTS 30 μM” value [2] was 1 and the “MTS 100 μM” value [2] was 1.
In the case of `Cc1ccc(OCC(=O)NN=Cc2ccncc2)cc1` [Compound 56], the IC50 [1] is reported as 40 µM, the “MTS AVG 4 (No Effect)” value [2] is reported as 3.333 and the “MTS 10 μM” value [2] is reported as 4. The “MTS 30 μM” value [2] was 3 and the “MTS 100 μM” value [2] was 3.
With `O=C(O)c1ccc2c(c1)C1C=CCC1C(c1cccc([N+](=O)[O-])c1)N2` (stereo not drawn) [Compound 59] the IC50 [1] was 22 µM, the “MTS AVG 4 (No Effect)” value [2] was 4.000 and the “MTS 10 μM” value [2] was 4. For the same compound, the “MTS 30 μM” value [2] was 4, the “MTS 100 μM” value [2] was 4 and the IC50 (HIV-1YU2) was 4.5 µM. The TC50 (Luc-M7 cells) was 84.1.
In the case of `CC(C)(C)c1ccc(OCCN2CCOCC2)cc1` [Compound 60], the IC50 [1] is reported as 75 µM, the “MTS AVG 4 (No Effect)” value [2] is reported as 3.333 and the “MTS 10 μM” value [2] is reported as 4. The “MTS 30 μM” value [2] was 4, the “MTS 100 μM” value [2] was 2 and the IC50 (HIV-1YU2) was 6.98 µM. It also gave a TC50 (Luc-M7 cells) of 125.3.
In the case of `Cc1ccc(C(C)C)c(OCC(=O)NN=Cc2ccc(C(=O)O)cc2)c1` [Compound 65], the IC50 [1] is reported as 14 µM, the “MTS AVG 4 (No Effect)” value [2] is reported as 3.667 and the “MTS 10 μM” value [2] is reported as 4. For the same compound, the “MTS 30 μM” value [2] was 4 and the “MTS 100 μM” value [2] was 3.
With `COc1ccc(OCC(=O)NN=Cc2cc(O)c(O)c(Br)c2)c(Br)c1` [Compound 71] the IC50 [1] was 24 µM, the “MTS AVG 4 (No Effect)” value [2] was 2.333 and the “MTS 10 μM” value [2] was 4. For the same compound, the “MTS 30 μM” value [2] was 2 and the “MTS 100 μM” value [2] was 1.
